Data set [1] can be described thus: Lipophilicity of the compound assessed as capacity factor (CHI IAM7.4) at pH 7.4 by chromatographic analysis. Format: physicochemical. The conditions noted are these: buffer.
Data set [2] in a line: n-octanol/PBS/sodium carbonate partition coefficient, log P of the compound after 4 hrs. Format: physicochemical.
In data set [3] the test system is Lipid bilayer. The data set can be described thus: Binding affinity to POPC liposome membrane in liquid disorder phase assessed as change in cross-relaxation rate of hydrophilic group B protons with G-3 segment at compound to POPC molar ratio of 1:10 to 1:5 by 1D 1H […] analysis.
Data set [4] concerns Lipid bilayer. The data set can be described thus: Binding affinity to POPC liposome membrane assessed as cross-relaxation rate of E proton with C-3/C-2 region of lipid at compound to POPC molar ratio of 1:10 by NOESY 1H NMR analysis.
In data set [5] the test system is Lipid bilayer. Nature of the data set: Binding affinity to POPC liposome membrane assessed as 31P chemical shift anisotropy at compound to POPC molar ratio of 1:10 by NMR analysis (reference value: 28.9 ppm).
For data set [6], the system named is Lipid bilayer. The data set can be described thus: Binding affinity to POPC liposome membrane in liquid disorder phase assessed as change in cross-relaxation rate of hydrophilic group B protons with G-1 segment at compound to POPC molar ratio of 1:10 to 1:5 by 1D 1H […] analysis.
The test system of data set [7] is Lipid bilayer. Nature of the data set: Binding affinity to POPC liposome membrane assessed as cross-relaxation rate of F proton with C-3/C-2 region of lipid at compound to POPC molar ratio of 1:10 by NOESY 1H NMR analysis.
In data set [8] the test system is Lipid bilayer. Nature of the data set: Binding affinity to POPC liposome membrane at compound to POPC molar ratio of 1:10 after 300 milliseconds by NOESY 1H NMR analysis.
For data set [9], the system named is Lipid bilayer. The data set can be described thus: Binding affinity to POPC liposome membrane assessed as cross-relaxation rate of H proton with C-3/C-2 region of lipid at compound to POPC molar ratio of 1:10 by NOESY 1H NMR analysis.
Data set [10] has as its system Lipid bilayer. The data set can be described thus: Binding affinity to POPC liposome membrane in liquid disorder phase assessed as broadening of POPC signals at compound to POPC molar ratio of 1:5 by 1D 1H […] analysis.
Data set [11] relates to Lipid bilayer. Nature of the data set: Binding affinity to POPC liposome membrane at compound to POPC molar ratio of 1:10 after 3 milliseconds in presence of Mn2+ by 2D NOESY NMR analysis.
The test system of data set [12] is Lipid bilayer. Nature of the data set: Binding affinity to POPC liposome membrane assessed as 31P chemical shift anisotropy at compound to POPC molar ratio of 1:10 in presence of Mn2+ by NMR analysis.
Data set [13] relates to Lipid bilayer. The data set can be described thus: Binding affinity to POPC liposome membrane at compound to POPC molar ratio of 1:10 after 3 milliseconds by 2D NOESY NMR analysis.
In data set [14] the test system is Lipid bilayer. Nature of the data set: Binding affinity to POPC liposome membrane in liquid disorder phase assessed as change in cross-relaxation rate of lypophilic group E protons with C2/C3 segment at compound to POPC molar ratio of 1:10 to 1:5 by 1D 1H […] analysis.
The test system of data set [15] is Lipid bilayer. The data set can be described thus: Binding affinity to POPC liposome membrane assessed as cross-relaxation rate of F protons with lipid acyl CH3 at compound to POPC molar ratio of 1:10 by NOESY 1H NMR analysis. Also on record: scale not given: the % may be the effect or the level left.
Data set [16] concerns Lipid bilayer. The data set can be described thus: Binding affinity to POPC liposome membrane assessed as cross-relaxation rate of E protons with C2/C3 segment at compound to POPC molar ratio of 1:10 by NOESY 1H NMR analysis.
Data set [17] has as its system Lipid bilayer. Nature of the data set: Binding affinity to POPC liposome membrane assessed as cross-relaxation rate of E protons with CH2-C= segment at compound to POPC molar ratio of 1:10 by NOESY 1H NMR analysis.
The subject of data set [18] is Lipid bilayer. The data set can be described thus: Binding affinity to POPC liposome membrane assessed as cross-relaxation rate of F protons with segment alpha at compound to POPC molar ratio of 1:10 by NOESY 1H NMR analysis. Also on record: scale not given: the % may be the effect or the level left.
The subject of data set [19] is Lipid bilayer. The data set can be described thus: Binding affinity to POPC liposome membrane assessed as cross-relaxation rate of E protons with (CH2)n segment at compound to POPC molar ratio of 1:10 by NOESY 1H NMR analysis.
Data set [20] concerns Lipid bilayer. The data set can be described thus: Binding affinity to POPC liposome membrane assessed as cross-relaxation rate of F protons with segment G-3 at compound to POPC molar ratio of 1:10 by NOESY 1H NMR analysis. Also on record: scale not given: the % may be the effect or the level left.
Data set [21] relates to Lipid bilayer. Nature of the data set: Binding affinity to POPC liposome membrane assessed as cross-relaxation rate of F protons with segment beta at compound to POPC molar ratio of 1:10 by NOESY 1H NMR analysis. Also on record: scale not given: the % may be the effect or the level left.
Data set [22] deals with Lipid bilayer. Nature of the data set: Binding affinity to POPC liposome membrane assessed as cross-relaxation rate of F protons with segment gamma at compound to POPC molar ratio of 1:10 by NOESY 1H NMR analysis. Also on record: scale not given: the % may be the effect or the level left.

Activity calls are given as the source filed them. No cut-off for these calls is given here. Where only a bound is given, the exact number is not on record here.

As usually defined, the logP is a log measure of how a compound divides between an organic and an aqueous phase. As for `O=c1ccc2c([C@@H](O)CNC3Cc4ccccc4C3)ccc(O)c2[nH]1`, in [1], the CHI turned out to be 41.6. This compound had a logP at 4 h in data set [2] of 1.55. Also, the outcome with Lipid bilayer [3], in the data set on Lipid bilayer [4] and with Lipid bilayer [6] was Active. The Activity in the data set with Lipid bilayer [5] lay within 32 to 33.6 ppm.
Regarding `CCc1ccc(CC)c2c1CC(NC[C@H](O)c1ccc(O)c3[nH]c(=O)ccc13)C2`, the CHI in data set [1] stood at 58.9. The result in the data set with Lipid bilayer [7] was Active. Also, the logP at 4 h in [2] came out at 3.03. Also, the Activity in the data set on Lipid bilayer [5] fell in the range of 32 to 33.6 ppm.
For `COc1ccc(CC(C)NCC(O)c2ccc(O)c(NC=O)c2)cc1` (stereo not drawn), the outcome with Lipid bilayer [8] and with Lipid bilayer [9] was Active. Moreover, the Activity in the data set on Lipid bilayer [5] is 32 to 33.6 ppm.
As to `CCc1cc2c(cc1CC)CC(NC[C@H](O)c1ccc(O)c3[nH]c(=O)ccc13)C2` [INDACATEROL], the Activity in the data set on Lipid bilayer [10] was 20 to 40%; with Lipid bilayer [5], 32 to 33.6 ppm. Moreover, the outcome in the data set on Lipid bilayer [11], in the data set on Lipid bilayer [3], with Lipid bilayer [4], in the data set with Lipid bilayer [12], in the data set with Lipid bilayer [13] and with Lipid bilayer [14] was Active. In addition, in the data set on Lipid bilayer [6], the result was Active. Also, the CHI in data set [1] is given as 62.5. Besides, the logP at 4 h in data set [2] came out at 3.05.
Consider `OCc1cc(C(O)CNCCCCCCOCCCCc2ccccc2)ccc1O` (stereo not drawn) [SALMETEROL], for which the Activity was 58% in the data set on Lipid bilayer [15]; 69% in the data set on Lipid bilayer [18]; under 0.0025 s⁻¹ in the data set on Lipid bilayer [4]; 49% in the data set with Lipid bilayer [20]; 32 to 33.6 ppm with Lipid bilayer [5]; 26% in the data set on Lipid bilayer [21]. Also, the Activity in the data set on Lipid bilayer [22] turned out to be 43%. For the same compound, the result with Lipid bilayer [16], in the data set with Lipid bilayer [17], with Lipid bilayer [3], in the data set on Lipid bilayer [19] and with Lipid bilayer [6] was Active. Moreover, the CHI in [1] is 56.7. This compound had a log partition coefficient (logP) at 4 h in [2] of 3.08.

The values above are taken from ChEMBL document CHEMBL4038322, “Interactions between β2-Adrenoceptor Ligands and Membrane: Atomic-Level Insights from Magic-Angle Spinning NMR” (J Med Chem, 2017).
